Consider three molecules from patent US9974727B2, “Hair growth and hair restoration material” (INSTITUTE OF RHEOLOGICAL FUNCTION OF FOOD CO., LTD., priority 2011, dated 2018).

Common to all, as to assay type: in vivo
Data set [1] concerns C3H male mice. Kind of data set: Hair growth test on shaved backs of mice. The note with it: for Hair growth state 2 weeks after application: 20 μL on shaved back, mice with hair growth / mice. On the procedure:
The FCG obtained in Production Example 1, the SCG obtained in Production Example 2, the CSG obtained in Production Example 3, and the RSG obtained in Production Example 4 were each dissolved, in 70% by mass ethanol water, and the following solutions were prepared:
Furthermore, commercially available cholesterol (hereinafter, abbreviated as “Cho”) was dissolved in 70% by mass ethanol water to prepare a Cho 10 pg/mL solution.
The body hair on the back of 8 to 9-week-old C3H male mice was shaved using an electric clippers for animal use (“Thrive clipper, Model 600AD” manufactured by Daito Electric Company) together with a rotary shaver (National ES611).
Each of the sample solutions (20 μL) was applied in four portions to the skin in central parts of the shaved backs of mice while repeating air drying. The application was conducted 24 hours after shaving.
The hair growth effect was evaluated 2 weeks after the application of the sample solution on the basis of observation with the naked eye and photographs taken by a digital camera. Furthermore, as controls, mice applied with 70% by mass ethanol water and mice not applied with a sample solution were used.

Data set [2] relates to shaved back skin of ICR male mice. In words: Preliminary test for hair growth using mice, HE staining of skin. To be noted: 10 pg/mL, 20 μL. On the procedure:
(§1) A 70% by mass aqueous ethanol solution containing FCG obtained in Production Example 1 at a concentration of 10 pg/mL (sample solution) was prepared.
(§2) The sample solution (20 μL) was applied onto the shaved back skin of four 9-week-old ICR male mice, and skin was collected after 3 hours and after 6 hours.
(§3) The skin was subjected to immunostaining for bFGF (basic fibroblast growth factor), Hsp70 (heat shock protein 70), and VEGF (vascular endothelial cell growth factor) by the fluorescent antibody technique and HE staining (hematoxylin-eosin staining), and samples of 14 μm-thick cryostat sections were prepared.

Data set [3] concerns bFGF (basic fibroblast growth factor). In words: Preliminary test for hair growth using mice, bFGF immunostaining of skin. On the procedure:
as §1, §2, §3

Data set [4] concerns VEGF (vascular endothelial cell growth factor). In words: Preliminary test for hair growth using mice, VEGF immunostaining of skin. To be noted: 10 pg/mL, 3 hours after application. On the procedure:
as §1, §2, §3

Data set [5] has as its system Hsp70 (heat shock protein 70). Kind of data set: Preliminary test for hair growth using mice, Hsp70 immunostaining of skin. To be noted: 10 pg/mL, 3 hours after application; hair papilla cells of hair root in telogen. On the procedure: as §1, §2, §3
For data set [6], the system named is head hair. In words: Hair growth effect on human head hair. The note with it: person. On the procedure:
(§4) The hair growth effect of FCG on head hair of a person was examined.
After hair was thoroughly washed and dried completely with a dryer, about 3.5 mL of a 70% by mass aqueous ethanol solution (sample solution) containing FCG at a concentration of 10 pg/mL was evenly applied, to the scalp once a day.
Before use of the sample solution and 4 months after start of use, photographs were taken by a digital camera from the forehead and the top of head.
as §4
After hair was thoroughly washed and naturally dried completely, about 3.5 mL of a 70% by mass aqueous ethanol solution (sample solution) containing FCG at a concentration of 10 pg/mL was evenly applied to the scalp once a day.
On the date of start of use of the sample solution and 5 months after start of use, photographs of the forehead and the top of head were taken by a digital camera.

[7] abbreviates: C3H mice, 2 weeks after application.
Where [8] appears, read: 10 pg/mL, 6 hours after application.
[9] abbreviates: 10 pg/mL, about 3.5 mL once a day, 5 months after start of use.

As to `CC(C)CCC[C@@H](C)[C@H]1CC[C@H]2[C@@H]3CC=C4C[C@@H](O[C@@H]5O[C@H](CO)[C@@H](O)[C@H](O)[C@H]5O)CC[C@]4(C)[C@H]3CC[C@]12C` [SCG, cholesteryl-β-D-glucopyranoside], the results for the “Hair growth state 2 weeks after application” value (“Hair growth state 2 weeks” for short) in data set [1] (1 pg/mL in 70% ethanol water), in data set [1] (10 pg/mL in 70% ethanol water) and in data set [1] (100 pg/mL in 70% ethanol water) were 6/8, “⅝” and “⅜”, respectively. Moreover, the “Hair growth action (summary of Table 1)” value in data set [1] (setting [7]) is listed as “same hair growth action as that of the cholesteryl glucopyranoside derived from feathers (FCG)”.
As for `CC(C)CCC[C@@H](C)[C@H]1CC[C@H]2[C@@H]3CC=C4C[C@@H](O)CC[C@]4(C)[C@H]3CC[C@]12C` [Cho, cholesterol, reference compound], in data set [1] (10 pg/mL in 70% ethanol water), the “Hair growth state 2 weeks” value is reported as 4/8. Moreover, in data set [1] (setting [7]), the “Hair growth action (summary of Table 1)” value was “weak”.
Regarding `CC(C)CCC[C@@H](C)[C@H]1CC[C@H]2[C@@H]3CC=C4C[C@@H](O[C@@H]5O[C@H](CO)[C@@H](O)[C@H](O)[C@H]5O)CC[C@]4(C)[C@H]3CC[C@]12C` [FCG, cholesteryl glucopyranoside], the “Hair growth state 2 weeks” value in data set [1] (1 pg/mL in 70% ethanol water) was 6/8. Further, the “Hair growth state 2 weeks” value in data set [1] (10 pg/mL in 70% ethanol water) is recorded as 4/8. The “Hair growth state 2 weeks” value in data set [1] (100 pg/mL in 70% ethanol water) is given as 5/7. Further, the “Death of mice during hair growth test” value in data set [1] (100 pg/mL, 2 weeks after application) is “one mouse died”. In data set [1] (setting [7]), the “Hair growth action at 1 pg/mL compared with 10 pg/mL” value is on record as “higher”. In addition, the “HE staining, hair root and hair bulb” value in data set [2] (3 hours after application, one of two mice) is “local extension of the hair root and enlargement of the hair bulb were observed”. Besides, the “HE staining, hair root” value in data set [2] (6 hours after application) is listed as “Most of the hair roots extended to the subcutaneous tissue”. Further, the “bFGF expression (immunostaining)” value in data set [3] (10 pg/mL, 3 hours after application, hair follicle, epidermis, bulge region, external root sheath, erector pili muscles) is recorded as “Strong expression of bFGF was detected”. For the same molecule, in data set [3] (setting [8]), the “bFGF expression in erector pili muscles (immunostaining)” value is given as “reduced to moderate” and the “bFGF expression in hair papilla cells (immunostaining)” value was “became weak”. For the same molecule, the “bFGF expression, conclusion” value in data set [3] (epidermis, external root sheath, bulge region, hair matrix) is “expression of bFGF is induced”. The “VEGF expression (immunostaining)” value in data set [4] is on record as “VEGF positive reaction was found in hair papilla cells in the hair matrix”. The “Hsp70 expression (immunostaining)” value in data set [5] is “Weak to moderate expression of Hsp70 was detected”. The “Hair growth on forehead and top of head” value in data set [6] (10 pg/mL, about 3.5 mL once a day, 4 months after start of use) is “a large amount of hair growth was observed”. In addition, in data set [6] (setting [9]), the “Hair growth on forehead” value is on record as “hair growth was observed” and the “Hair growth on top of head” value is listed as “a good amount of hair growth was observed”. In addition, the Side effects result in data set [6] (one year after start of use) is reported as “side effects are not recognized”.
